From patent US12042485B2, “Methods of minimizing cancer metastasis” (MEDICINOVA, INC., priority 2021, dated 2024)

Columns and labels:
[1] = test system: PDE 4; settings: Gibson et al., Eur. J. Pharmacol. 2006; cited from earlier work
[2] = target: toll-like receptor-4 (TLR4) (Homo sapiens, UniProt O00206); settings: Yang et al., Cell Death and Disease 2016; cited from earlier work
[3] = target: PDE 10A1 (Homo sapiens, UniProt Q9Y233); settings: Gibson et al., Eur. J. Pharmacol. 2006; cited from earlier work
Sequence of PDE 10A1 (Q9Y233 1-779 isoform Q9Y233-1): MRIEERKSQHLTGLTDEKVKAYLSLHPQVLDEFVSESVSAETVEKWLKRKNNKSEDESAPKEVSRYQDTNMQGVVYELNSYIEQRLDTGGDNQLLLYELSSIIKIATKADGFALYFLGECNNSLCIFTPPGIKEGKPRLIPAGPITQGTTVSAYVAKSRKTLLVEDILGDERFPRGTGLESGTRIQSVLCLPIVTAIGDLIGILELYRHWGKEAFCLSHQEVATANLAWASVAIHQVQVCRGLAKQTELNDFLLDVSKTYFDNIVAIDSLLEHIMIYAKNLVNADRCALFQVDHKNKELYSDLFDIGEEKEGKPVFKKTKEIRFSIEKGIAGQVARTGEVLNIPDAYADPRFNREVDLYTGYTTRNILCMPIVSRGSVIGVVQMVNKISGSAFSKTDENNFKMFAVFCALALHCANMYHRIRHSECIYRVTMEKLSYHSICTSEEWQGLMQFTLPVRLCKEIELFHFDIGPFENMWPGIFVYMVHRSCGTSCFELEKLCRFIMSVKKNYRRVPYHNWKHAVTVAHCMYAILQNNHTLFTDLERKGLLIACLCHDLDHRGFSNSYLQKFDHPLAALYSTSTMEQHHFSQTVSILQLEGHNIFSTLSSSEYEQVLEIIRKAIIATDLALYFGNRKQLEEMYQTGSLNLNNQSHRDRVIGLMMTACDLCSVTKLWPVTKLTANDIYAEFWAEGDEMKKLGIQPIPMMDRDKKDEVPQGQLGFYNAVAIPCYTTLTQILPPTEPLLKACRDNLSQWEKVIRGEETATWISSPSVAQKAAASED

[4] = test system: MIF; test: plasma level of MIF after ibudilast; settings: found by the inventors; no data given
[5] = target: PDE 11A1 (Homo sapiens, UniProt Q9HCR9); settings: Gibson et al., Eur. J. Pharmacol. 2006; cited from earlier work
Sequence of PDE 11A1 (Q9HCR9 445-933): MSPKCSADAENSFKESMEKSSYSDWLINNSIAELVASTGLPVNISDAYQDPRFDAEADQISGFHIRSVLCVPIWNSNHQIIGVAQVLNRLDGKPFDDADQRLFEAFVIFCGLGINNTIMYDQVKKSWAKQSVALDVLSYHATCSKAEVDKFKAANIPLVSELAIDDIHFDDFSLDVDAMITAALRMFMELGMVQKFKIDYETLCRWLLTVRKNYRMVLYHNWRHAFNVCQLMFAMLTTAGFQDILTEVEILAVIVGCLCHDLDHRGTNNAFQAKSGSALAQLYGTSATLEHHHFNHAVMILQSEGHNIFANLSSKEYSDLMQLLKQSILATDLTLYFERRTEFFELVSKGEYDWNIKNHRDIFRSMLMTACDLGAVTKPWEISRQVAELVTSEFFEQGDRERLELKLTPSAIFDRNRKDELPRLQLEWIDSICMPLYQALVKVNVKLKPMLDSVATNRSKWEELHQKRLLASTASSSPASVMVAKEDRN

[6] = target: T1, macrophage inhibitory factor (MIF) (Homo sapiens, UniProt P14174); settings: Cho et al., PNAS-USA 2010; cited from earlier work
T1 sequence (P14174 2-115 limits assumed): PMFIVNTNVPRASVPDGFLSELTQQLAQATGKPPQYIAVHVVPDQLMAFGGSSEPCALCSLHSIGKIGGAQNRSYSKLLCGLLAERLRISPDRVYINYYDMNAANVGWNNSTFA

[7] = target: PDE 3A (Homo sapiens, UniProt Q14432); settings: Gibson et al., Eur. J. Pharmacol. 2006; cited from earlier work
Sequence of PDE 3A (Q14432 whole entry): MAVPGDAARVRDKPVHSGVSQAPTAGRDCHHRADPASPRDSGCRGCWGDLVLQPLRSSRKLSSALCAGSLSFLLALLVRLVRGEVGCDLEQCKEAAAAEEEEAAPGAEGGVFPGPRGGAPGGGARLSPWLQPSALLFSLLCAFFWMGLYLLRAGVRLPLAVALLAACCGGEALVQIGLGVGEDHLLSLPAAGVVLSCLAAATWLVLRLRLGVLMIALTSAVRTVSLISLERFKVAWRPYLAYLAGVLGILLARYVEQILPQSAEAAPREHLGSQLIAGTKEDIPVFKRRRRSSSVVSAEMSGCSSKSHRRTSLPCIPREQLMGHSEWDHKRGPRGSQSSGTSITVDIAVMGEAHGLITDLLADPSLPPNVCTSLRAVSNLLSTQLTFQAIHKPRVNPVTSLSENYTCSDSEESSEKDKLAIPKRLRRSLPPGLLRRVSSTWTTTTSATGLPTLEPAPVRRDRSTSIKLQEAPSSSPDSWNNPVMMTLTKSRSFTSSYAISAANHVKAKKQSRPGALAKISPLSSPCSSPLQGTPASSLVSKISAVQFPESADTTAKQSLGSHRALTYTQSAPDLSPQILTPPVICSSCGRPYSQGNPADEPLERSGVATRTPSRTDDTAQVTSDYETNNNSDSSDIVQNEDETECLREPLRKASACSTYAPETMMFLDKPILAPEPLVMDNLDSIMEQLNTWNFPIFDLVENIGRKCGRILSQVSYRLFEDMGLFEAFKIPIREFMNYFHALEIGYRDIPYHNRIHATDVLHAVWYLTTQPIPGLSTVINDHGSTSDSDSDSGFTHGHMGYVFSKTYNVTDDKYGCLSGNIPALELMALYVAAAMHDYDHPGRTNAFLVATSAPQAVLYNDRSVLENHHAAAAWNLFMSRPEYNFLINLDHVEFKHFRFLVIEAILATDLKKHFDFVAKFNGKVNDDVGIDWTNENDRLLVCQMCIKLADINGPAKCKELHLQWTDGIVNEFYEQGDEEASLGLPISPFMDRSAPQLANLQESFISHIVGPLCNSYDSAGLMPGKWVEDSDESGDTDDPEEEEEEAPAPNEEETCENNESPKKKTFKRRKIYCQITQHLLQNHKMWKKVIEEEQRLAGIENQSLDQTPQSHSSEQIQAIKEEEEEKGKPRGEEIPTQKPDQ

[8] = Sanftner et al Xenobiotica 2009; cited from earlier work

Sequence of toll-like receptor-4 (TLR4) (O00206 24-839, species assumed): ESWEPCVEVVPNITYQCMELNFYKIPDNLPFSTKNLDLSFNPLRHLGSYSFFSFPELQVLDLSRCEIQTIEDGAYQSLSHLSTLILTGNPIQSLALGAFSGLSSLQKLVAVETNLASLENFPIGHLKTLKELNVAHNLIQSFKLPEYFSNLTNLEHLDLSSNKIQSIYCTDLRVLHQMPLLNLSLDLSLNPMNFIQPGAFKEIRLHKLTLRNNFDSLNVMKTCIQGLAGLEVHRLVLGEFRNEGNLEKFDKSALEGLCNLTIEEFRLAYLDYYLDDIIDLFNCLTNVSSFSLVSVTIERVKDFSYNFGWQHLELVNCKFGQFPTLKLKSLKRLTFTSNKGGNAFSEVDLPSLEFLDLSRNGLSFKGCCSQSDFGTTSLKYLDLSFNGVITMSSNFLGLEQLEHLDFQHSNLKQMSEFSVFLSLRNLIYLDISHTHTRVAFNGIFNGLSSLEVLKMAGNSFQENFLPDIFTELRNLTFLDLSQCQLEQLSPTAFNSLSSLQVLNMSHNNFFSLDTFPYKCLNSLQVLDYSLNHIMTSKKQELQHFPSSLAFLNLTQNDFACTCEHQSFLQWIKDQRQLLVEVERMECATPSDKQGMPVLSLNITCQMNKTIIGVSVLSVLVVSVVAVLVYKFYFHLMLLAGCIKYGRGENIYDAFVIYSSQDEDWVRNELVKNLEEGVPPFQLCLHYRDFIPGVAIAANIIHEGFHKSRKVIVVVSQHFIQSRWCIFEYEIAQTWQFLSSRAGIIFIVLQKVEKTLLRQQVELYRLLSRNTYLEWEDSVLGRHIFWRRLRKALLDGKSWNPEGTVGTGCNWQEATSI
Sequence of toll-like receptor-4 (TLR4) (Q9Y6Y9 17-160 partner limits assumed, species assumed): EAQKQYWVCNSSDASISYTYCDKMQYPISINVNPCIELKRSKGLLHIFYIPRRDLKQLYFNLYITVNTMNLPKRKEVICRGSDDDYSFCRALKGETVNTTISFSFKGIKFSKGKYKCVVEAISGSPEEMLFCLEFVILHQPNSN

In the case of `CC(C)C(=O)c1c(C(C)C)nn2ccccc12` [ibudilast, 2-methyl-1-(2-(1-methylethyl)pyrazolo(1,5-a)pyridin-3-yl)1-propanone], the “inhibition of PDE 4” value [1] is listed as “selective inhibitor”, the TLR4 antagonistic activity [2] is listed as “antagonistic activity” and the “inhibition of PDE 10A1” value [3] is listed as “selective inhibitor”. The “plasma level of MIF” value [4] was “lowers”, the “inhibition of PDE 11A1” value [5] was “selective inhibitor” and the “inhibition of HPP tautomerase activity of MIF” value [6] was “allosteric inhibitor”. For the same molecule, the “inhibition of PDE 3A” value [7] was “selective inhibitor” and the CNS penetration [8] was “good CNS penetration”.
